Test results from US20080152640A1, “Means and Methods For Treating a Disease Which is Associated With an Excess Transport of Hyaluronan Across a Lipid Bilayer” (priority 2003, published 2008).
Where two headings read alike, the source gives them in different places.

Tests used:
MRP transporters [1] = system: T1, MRP transporters; conditions: human erythrocytes; cited from earlier work
T1 construct: other: human erythrocytes

MRP transporters [2] = target: MRP transporters (Homo sapiens, UniProt P33527); conditions: read-out: IC50 for MRP transporter; cited from earlier work
hyaluronan synthase = conditions: read-out: HA synthase activity (IC50); membranes of human fibroblasts
MRP7 = target: T2, MRP7 (Homo sapiens, UniProt Q5T3U5); conditions: cited from earlier work
T2 sequence (Q5T3U5 1-1492): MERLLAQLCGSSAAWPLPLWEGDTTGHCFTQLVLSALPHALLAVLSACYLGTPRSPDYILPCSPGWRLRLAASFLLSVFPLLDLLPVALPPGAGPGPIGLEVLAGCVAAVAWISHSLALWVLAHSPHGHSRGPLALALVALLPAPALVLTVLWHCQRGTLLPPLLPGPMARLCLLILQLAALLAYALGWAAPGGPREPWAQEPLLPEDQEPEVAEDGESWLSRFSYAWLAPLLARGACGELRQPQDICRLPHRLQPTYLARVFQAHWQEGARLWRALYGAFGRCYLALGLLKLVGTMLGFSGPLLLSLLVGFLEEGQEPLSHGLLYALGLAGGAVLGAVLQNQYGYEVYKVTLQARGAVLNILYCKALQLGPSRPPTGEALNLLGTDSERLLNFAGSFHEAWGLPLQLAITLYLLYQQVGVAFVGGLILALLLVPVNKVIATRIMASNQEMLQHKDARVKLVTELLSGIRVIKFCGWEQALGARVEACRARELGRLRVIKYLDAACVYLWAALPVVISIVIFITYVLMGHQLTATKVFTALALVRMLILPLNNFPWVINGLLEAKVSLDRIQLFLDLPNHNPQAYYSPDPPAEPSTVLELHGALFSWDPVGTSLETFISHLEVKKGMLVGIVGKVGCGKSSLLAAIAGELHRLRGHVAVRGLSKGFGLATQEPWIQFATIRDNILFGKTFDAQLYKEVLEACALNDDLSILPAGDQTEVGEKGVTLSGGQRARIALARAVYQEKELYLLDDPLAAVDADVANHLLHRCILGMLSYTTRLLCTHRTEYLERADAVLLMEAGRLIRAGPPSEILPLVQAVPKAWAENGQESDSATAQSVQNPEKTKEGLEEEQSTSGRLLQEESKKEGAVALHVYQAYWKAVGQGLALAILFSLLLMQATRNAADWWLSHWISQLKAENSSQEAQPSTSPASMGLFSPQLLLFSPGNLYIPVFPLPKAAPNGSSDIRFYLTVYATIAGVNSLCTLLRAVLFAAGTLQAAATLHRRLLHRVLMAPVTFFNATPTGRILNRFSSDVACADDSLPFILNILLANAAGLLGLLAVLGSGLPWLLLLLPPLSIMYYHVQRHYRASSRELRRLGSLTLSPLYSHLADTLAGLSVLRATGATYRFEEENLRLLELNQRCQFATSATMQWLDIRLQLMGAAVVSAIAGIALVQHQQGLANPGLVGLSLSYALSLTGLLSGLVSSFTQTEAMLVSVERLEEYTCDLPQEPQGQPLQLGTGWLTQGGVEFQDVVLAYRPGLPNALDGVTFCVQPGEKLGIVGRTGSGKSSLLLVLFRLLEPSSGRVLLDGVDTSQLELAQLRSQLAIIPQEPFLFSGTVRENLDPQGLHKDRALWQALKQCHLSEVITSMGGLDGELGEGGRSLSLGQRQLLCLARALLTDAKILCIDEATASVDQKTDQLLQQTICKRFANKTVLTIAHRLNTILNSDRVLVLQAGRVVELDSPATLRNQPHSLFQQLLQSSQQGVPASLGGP

MRP5 = MRP5 (Homo sapiens, UniProt O15440); conditions: cited from earlier work
hyaluronan transport = assay: Inhibition of hyaluronan transport (export) from human fibroblasts, discussion of Example 9; conditions: human fibroblasts
Method: Cells from five culture flasks (180 cm2 growth area) were washed with cold phosphate buffered saline (PBS), harvested with the aid of a rubber policeman, sedimented at 1500 g for 5 min and suspended in 30 ml of ice-cold PBS. The cells were transferred into a Parr-cell disruption bomb, exposed to a nitrogen pressure of 900 psi for 15 min and disrupted by nitrogen cavitation [18] and the particulate fraction was obtained by centrifugation at 40000 g for 20 min. […] Hyaluronan synthesis was stopped by adding a solution of 10% sodium dodecylsuifate (SDS) to a final concentration of 1%. The mixtures were applied to descending paper chromatography that was developed with ethanol/aq. 1 M ammonium acetate pH 5.5 (13:7) as solvent. After 18 h the radioactivity of [14C]hyaluronan at the origin was determined.
Trypsinised fibroblasts were suspended in Dulbecco's medium at 10^5 cells/ml and 100 μl aliquots were transferred to a 96 well microtiter plate. The first row received 200 μl of the suspension and 20 μl of the multidrug resistance inhibitors dissolved in DMSO at concentrations of 4 mM. A serial dilution to the inhibitors was established by transfer of 100 μl aliquots from the first row to the following rows. All experiments were performed in duplicates. […] The cells were incubated for 2 days at 37° C. and aliquots (5 and 20 μl) of the culture medium were used for measurement of the hyaluronan concentration in the cell culture medium by an ELISA [19]. […] The mixtures were transferred to the hyaluronan-coated test plate and incubated for 1 hour at 37° C. The microtiter plate was washed three times with buffer A and incubated with 100 μl/well of a solution of streptavidin-horseraddish-peroxidase (Amersham) at a dilution of 1:100 in phosphate buffered saline, 0.1% Tween-20 for 30 min at room temperature. The plate was washed five times with buffer A and the colour was developed by incubation with a 100 μl/well of a solution of 5 mg o-phenylenediamine and 5 μl 30% H2O2 in 10 ml of 0.1 M citrate-phosphate buffer pH 5.3 for 25 min at room temperature. The adsorption was read at 490 nm. The concentrations in the samples were calculated from a logarithmic regression curve of the hyaluronan standard solutions.
Three parameters were measured: 1. The amount of hyaluronan produced during growth into the culture supernatant. 2. The hyaluronan synthase activity in particulate membrane fractions to eliminate the possibility that inhibition of hyaluronan production in cell culture could be caused indirectly by cellular mediators. 3. The effect on cell proliferation, because hyaluronan synthesis is also required for detachment during mitosis and growth of the human HT1080 cell line [14].

MDR1 = MDR1 (Homo sapiens, UniProt P08183); conditions: cited from earlier work
human fibroblasts = assay: Hyaluronan production of human fibroblasts (ELISA of culture medium); format: cell-based; conditions: Fibroblast; human fibroblasts, culture medium; read-out: HA production (IC50)
MRP1 = MRP1 (Homo sapiens, UniProt P33527); conditions: read-out: published inhibitory concentrations IC50 or Ki, MRP1; cited from earlier work
human skin fibroblasts = assay: Proliferation of human skin fibroblasts (cell counting); format: cell-based; conditions: Homo sapiens, Skin fibroblast, read-out: Proliferation (IC50)
Method: Human fibroblasts were grown in […] in Dulbecco's modified Eagles medium supplemented with streptomycin/penicillin (100 units of each/ml), kanamycin (100 units/ml) and 10% foetal calf serum. Cell proliferation was determined by cell counting after trypsinisation three days after seeding.

MRP5, sequence (O15440 whole entry): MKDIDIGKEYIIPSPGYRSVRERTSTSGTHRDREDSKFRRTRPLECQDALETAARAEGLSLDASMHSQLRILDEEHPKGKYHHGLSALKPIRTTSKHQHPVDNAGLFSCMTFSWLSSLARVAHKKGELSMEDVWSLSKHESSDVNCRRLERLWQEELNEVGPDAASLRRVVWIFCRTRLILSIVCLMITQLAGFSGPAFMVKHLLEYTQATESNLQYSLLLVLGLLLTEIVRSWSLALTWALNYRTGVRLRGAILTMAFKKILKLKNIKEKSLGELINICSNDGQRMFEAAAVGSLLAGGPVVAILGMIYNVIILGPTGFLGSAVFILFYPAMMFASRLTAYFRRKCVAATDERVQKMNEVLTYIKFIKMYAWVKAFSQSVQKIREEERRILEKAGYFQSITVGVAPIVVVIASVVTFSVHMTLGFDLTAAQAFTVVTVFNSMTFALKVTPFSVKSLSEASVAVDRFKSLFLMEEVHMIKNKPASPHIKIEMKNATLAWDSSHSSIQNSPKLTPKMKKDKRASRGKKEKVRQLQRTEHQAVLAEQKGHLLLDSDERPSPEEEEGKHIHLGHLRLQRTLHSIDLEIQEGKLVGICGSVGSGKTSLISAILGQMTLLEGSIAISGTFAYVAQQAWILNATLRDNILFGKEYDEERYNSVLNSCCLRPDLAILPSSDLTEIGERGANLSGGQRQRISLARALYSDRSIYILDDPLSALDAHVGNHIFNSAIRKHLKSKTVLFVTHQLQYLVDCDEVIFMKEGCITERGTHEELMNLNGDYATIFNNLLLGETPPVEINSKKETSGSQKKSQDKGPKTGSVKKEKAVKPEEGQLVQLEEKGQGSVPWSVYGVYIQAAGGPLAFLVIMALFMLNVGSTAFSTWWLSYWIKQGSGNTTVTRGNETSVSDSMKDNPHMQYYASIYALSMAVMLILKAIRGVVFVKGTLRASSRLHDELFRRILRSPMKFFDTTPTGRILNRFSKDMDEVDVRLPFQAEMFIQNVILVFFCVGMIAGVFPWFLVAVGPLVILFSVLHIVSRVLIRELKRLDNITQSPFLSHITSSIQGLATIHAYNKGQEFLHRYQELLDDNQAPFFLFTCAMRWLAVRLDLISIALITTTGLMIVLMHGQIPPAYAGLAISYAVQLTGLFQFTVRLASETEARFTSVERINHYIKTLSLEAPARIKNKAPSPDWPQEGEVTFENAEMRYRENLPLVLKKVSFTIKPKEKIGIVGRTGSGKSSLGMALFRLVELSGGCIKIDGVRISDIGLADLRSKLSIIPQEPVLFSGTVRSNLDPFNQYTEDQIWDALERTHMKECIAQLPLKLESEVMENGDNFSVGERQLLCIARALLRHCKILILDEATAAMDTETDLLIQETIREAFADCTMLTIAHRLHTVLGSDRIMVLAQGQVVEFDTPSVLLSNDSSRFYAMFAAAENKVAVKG
MDR1, sequence (P08183 whole entry): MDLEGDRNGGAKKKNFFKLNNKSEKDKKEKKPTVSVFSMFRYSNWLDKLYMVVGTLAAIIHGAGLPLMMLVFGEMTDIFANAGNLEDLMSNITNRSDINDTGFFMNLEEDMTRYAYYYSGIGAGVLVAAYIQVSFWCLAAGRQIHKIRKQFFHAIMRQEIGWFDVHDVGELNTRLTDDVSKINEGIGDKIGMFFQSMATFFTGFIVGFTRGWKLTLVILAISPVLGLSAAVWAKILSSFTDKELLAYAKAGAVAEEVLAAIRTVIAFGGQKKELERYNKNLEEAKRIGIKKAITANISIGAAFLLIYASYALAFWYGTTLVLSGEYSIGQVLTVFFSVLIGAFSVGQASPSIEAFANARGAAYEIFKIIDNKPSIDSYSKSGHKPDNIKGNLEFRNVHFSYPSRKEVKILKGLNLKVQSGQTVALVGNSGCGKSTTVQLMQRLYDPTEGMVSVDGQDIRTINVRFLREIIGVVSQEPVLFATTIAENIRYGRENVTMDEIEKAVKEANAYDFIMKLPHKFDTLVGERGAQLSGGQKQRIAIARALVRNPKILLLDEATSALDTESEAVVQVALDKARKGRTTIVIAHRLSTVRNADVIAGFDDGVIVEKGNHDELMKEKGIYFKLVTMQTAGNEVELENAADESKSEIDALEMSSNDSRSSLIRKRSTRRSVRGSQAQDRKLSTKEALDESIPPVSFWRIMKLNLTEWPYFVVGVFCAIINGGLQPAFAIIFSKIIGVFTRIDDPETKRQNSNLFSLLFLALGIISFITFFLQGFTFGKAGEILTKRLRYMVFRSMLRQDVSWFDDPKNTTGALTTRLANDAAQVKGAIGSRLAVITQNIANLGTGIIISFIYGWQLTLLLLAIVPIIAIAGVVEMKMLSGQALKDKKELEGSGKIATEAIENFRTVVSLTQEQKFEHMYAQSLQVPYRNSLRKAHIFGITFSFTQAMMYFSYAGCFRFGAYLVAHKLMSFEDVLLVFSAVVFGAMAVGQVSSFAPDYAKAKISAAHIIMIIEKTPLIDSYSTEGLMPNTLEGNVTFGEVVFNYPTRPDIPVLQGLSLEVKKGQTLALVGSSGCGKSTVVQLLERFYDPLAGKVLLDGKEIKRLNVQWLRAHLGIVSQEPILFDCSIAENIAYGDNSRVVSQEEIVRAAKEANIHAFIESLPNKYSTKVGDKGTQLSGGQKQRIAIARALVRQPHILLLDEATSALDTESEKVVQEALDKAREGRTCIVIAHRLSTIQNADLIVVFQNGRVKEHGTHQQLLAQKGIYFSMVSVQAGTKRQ
MRP transporters (Homo sapiens, UniProt P33527), sequence (P33527 whole entry): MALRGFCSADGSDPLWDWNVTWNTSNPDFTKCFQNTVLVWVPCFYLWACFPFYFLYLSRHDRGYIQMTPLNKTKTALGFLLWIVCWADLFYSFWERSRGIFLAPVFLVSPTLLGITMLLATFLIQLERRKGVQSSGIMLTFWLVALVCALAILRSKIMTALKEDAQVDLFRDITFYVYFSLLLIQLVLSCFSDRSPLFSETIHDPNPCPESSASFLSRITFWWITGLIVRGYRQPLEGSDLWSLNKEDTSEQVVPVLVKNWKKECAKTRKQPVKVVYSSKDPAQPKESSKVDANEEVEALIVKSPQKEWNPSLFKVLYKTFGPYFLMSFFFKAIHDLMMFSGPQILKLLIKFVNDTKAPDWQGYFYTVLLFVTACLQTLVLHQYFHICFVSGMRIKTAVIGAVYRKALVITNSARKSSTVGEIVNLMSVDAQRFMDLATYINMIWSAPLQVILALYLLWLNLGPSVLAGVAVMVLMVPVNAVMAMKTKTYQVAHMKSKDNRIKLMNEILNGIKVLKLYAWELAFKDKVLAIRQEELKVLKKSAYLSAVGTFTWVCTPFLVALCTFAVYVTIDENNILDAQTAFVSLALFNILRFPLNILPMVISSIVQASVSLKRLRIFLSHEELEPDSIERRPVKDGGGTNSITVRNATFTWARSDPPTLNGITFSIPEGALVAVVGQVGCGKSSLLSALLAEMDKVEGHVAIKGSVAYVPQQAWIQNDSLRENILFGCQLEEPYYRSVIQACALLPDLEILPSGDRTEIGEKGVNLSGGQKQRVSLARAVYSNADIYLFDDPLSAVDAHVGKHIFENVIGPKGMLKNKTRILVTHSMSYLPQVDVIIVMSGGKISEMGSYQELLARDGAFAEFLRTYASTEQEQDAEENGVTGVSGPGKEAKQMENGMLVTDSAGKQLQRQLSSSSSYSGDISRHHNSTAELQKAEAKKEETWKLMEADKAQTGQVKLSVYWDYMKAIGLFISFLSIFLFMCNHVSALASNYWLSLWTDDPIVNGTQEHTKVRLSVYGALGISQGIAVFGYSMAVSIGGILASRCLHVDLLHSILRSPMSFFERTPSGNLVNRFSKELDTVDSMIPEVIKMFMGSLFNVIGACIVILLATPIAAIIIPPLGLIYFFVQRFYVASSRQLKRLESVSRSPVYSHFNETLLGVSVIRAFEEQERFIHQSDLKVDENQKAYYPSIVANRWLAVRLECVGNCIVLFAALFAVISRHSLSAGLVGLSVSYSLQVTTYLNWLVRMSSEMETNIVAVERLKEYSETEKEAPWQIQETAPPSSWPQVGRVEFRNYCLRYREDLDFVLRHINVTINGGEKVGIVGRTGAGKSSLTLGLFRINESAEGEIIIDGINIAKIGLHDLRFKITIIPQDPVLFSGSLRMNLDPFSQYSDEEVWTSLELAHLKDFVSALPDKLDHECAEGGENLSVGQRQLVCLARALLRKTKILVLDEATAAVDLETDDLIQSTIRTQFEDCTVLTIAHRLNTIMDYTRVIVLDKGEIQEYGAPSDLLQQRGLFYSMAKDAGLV
MRP1, sequence (P33527 whole entry): as above

CCCN(CCC)S(=O)(=O)c1ccc(C(=O)O)cc1 [Probenecid]
IC50 (MRP transporters [1]): 100 to 200 µM | IC50 (MRP transporters [2]): 500 to 800 µM | IC50 (hyaluronan synthase): 200 µM | inhibition of 17β-glucuronosyl-estradiol export by MRP7 (MRP7): weak inhibitor | published inhibitory concentrations IC50 or Ki, MRP7 (MRP7): weak | inhibition of MRP5 mediated transport of cGMP (MRP5; at a concentration of 50 μM): 68% | IC50 (MRP5; substrate PMEA, read-out: IC50, PMEA transport by MRP5): 200 µM | concentration inhibiting export of fluorescein diacetate by MRP5 (MRP5; substrate fluorescein diacetate): 1 mM | inhibition of hyaluronan transport (words) (hyaluronan transport): inhibited hyaluronan transport | IC50 (MDR1; read-out: IC50 for MDR1): > 2000 µM | IC50 (MDR1; read-out: published inhibitory concentrations IC50 or Ki, MDR1): > 2000 µM | IC50 (human fibroblasts): 200 µM | IC50 (MRP1): 100 to 200 µM | IC50 (human skin fibroblasts): 200 µM
